Tested on: new-onset T1D individuals
Assay: Clinical study of ingested interferon-α: residual C-peptide and microRNA signature of beta cell death
Assay type: in vivo, human
From the text: In order to assess whether microRNAs could predict treatment efficacy, microRNAs were profiled from a de-identified clinical study set of samples from new-onset T1D individuals. These individuals received oral interferon-α at two doses as a therapy to preserve beta cell mass. The effect of ingested interferon-α on residual C-peptide (a measure of beta cell mass) at one year following treatment with 5000 units, 30,000 units or placebo was investigated.
Treatment groups are shown on the X-axis. The remaining beta-cell function measured as circulating C-peptide levels at 1 year (relative to baseline) are plotted on Y-axis (adjusted means, vertical bars denote 0.95 confidence intervals).

Substance: interferon-α
- remaining beta-cell function measured as circulating C-peptide levels at 1 year (relative to baseline) (30,000 units ingested IFN treatment group as compared to the Control group, FIG. 13): significant preservation of islet beta cell mass
- miRNA signature of beta cell death (abundance) (30,000 units ingested IFN treatment group, 12 months from study baseline): lower abundance
- microRNA signature of beta cell death (individuals showing the highest preservation of beta-cell mass at one year of treatment, FIG. 14): decreased

Reference: patent US20200172975A1, “Cell-Free microRNA Signatures of Pancreatic Islet Beta Cell Death” (THE UNIVERSITY OF SYDNEY, priority 2017, published 2020)
